{"source": "patent US20120171123A1", "about": "“USES AND COMPOSITIONS FOR TREATMENT OF RHEUMATOID ARTHRITIS” (priority 2006, published 2012)", "key": {"[1]": {"test_system": "MTX-naïve adult patients with early RA (<3 years)", "test": "Study J: SF-36 (domains, PCS, MCS) with criteria- and content-based interpretation", "format": "in vivo, human", "set-up": "key to mean SF-36 PCS score / SF-36 Role-Physical score / SF-36 Bodily Pain score / SF-36 General Health score / SF-36 Vitality score / SF-36 Social Functioning score / SF-36 Role-Emotional score / SF-36 Mental Health score / SF-36 PCS score / SF-36 MCS score / SF-36 Physical Functioning score: scale 0-100, higher = better health-related quality of life", "conditions": "for SF-36 Bodily Pain score / SF-36 General Health score / SF-36 MCS score / SF-36 Mental Health score / SF-36 PCS score / SF-36 Physical Functioning score / SF-36 Role-Emotional score / SF-36 Role-Physical score / SF-36 Social Functioning score / SF-36 Vitality score: LOCF", "description": "Study J was a 2-year, double-blind, active comparator-controlled, Phase III study conducted at many sites worldwide.\nThe SF-36 was used to assess the 8 domains of HRQOL—physical functioning, role-physical, bodily pain, general health, vitality, social functioning, role-emotional, and mental health. These 8 domains were aggregated into Physical Component Summary (PCS) and Mental Component Summary (MCS) scores. The SF-36 has a scale of 0-100, with higher scores indicating better health-related quality of life.\nMinimum clinically important differences (MCID) are defined as improvements of 5-10 points in the individual domains scores and 2.5-5 points in the PCS and MCS^5.\nAll HRQOL domains were measured at baseline, and after 12, 26, 42, 52, 76, and 104 weeks of therapy. In this analysis, mean scores and mean changes in each HRQOL domain are reported, as well as the PCS and MCS, at Weeks 12 and 104. Criteria-based interpretation was used to understand the meaning of differences in PCS scores for work loss and resource use and content-based interpretation for specific SF-36 items.^4\nStudy J was a 2-year, double-blind, active comparator-controlled, Phase III study conducted at 149 sites in North America, Europe, and Australia. […] The SF-36 was used to assess the 8 domains of HRQOL—physical functioning, role-physical, bodily pain, general health, vitality, social functioning, role-emotional, and mental health. These 8 domains were aggregated into Physical Component Summary (PCS) and Mental Component Summary (MCS) scores. The SF-36 has a scale of 0-100, with higher scores indicating better health-related quality of life. Minimum clinically important differences (MCID) are defined as improvements of 5-10 points in the individual domains scores and 2.5-5 points in the PCS and MCS (Kosinski M, et al. Arthritis Rheum 2000:43:1478-87). All HRQOL domains were measured at baseline, and after 12, 26, 42, 52, 76, and 104 weeks of therapy. In this analysis, we report mean scores and mean changes in each HRQOL domain, as well as the PCS and MCS, at Weeks 12 and 104. We used criteria-based interpretation to understand the meaning of differences in PCS scores for work loss and resource use and content-based interpretation for specific SF-36 items (Weinblatt M E, et al. Arthritis Rheum 2003; 48:35-45)."}, "[2]": {"test_system": "MTX-naïve adult patients with active, early RA (<3 years)", "conditions": "in vivo", "excerpt": "Study J was a 2-year randomized controlled trial in patients with early RA (disease duration<3 years). Participants in these clinical trials and in other phase Mb studies, were routinely evaluated for safety. Reports of serious adverse events (SAE) were tabulated using MedDRA coding by events per 100-patient-years (E/100PY). SAE rates were compared with respect to disease duration between patients with early (<3 yrs) and long-standing RA."}, "[3]": {"conditions": "Baseline, percentages based on general US population norms"}, "[4]": {"conditions": "Week 104, percentages based on general US population norms"}}}
{"compound": "CN(Cc1cnc2nc(N)nc(N)c2n1)c1ccc(C(=O)N[C@@H](CCC(=O)O)C(=O)O)cc1", "note": "[mtx alone, methotrexate]", "values": [{"measurement": "SF-36 Bodily Pain score", "setting": "[1]; Baseline", "value": 29.9}, {"measurement": "SF-36 General Health score", "setting": "[1]; Baseline", "value": 49.7}, {"measurement": "SF-36 MCS score", "setting": "[1]; Baseline", "value": 43.5}, {"measurement": "SF-36 Mental Health score", "setting": "[1]; Baseline", "value": 62.1}, {"measurement": "SF-36 PCS score", "setting": "[1]; Baseline", "value": 32.2}, {"measurement": "SF-36 Physical Functioning score", "setting": "[1]; Baseline", "value": 38.9}, {"measurement": "SF-36 Role-Emotional score", "setting": "[1]; Baseline", "value": 41.1}, {"measurement": "SF-36 Role-Physical score", "setting": "[1]; Baseline", "value": 16.4}, {"measurement": "SF-36 Social Functioning score", "setting": "[1]; Baseline", "value": 56.5}, {"measurement": "SF-36 Vitality score", "setting": "[1]; Baseline", "value": 37.1}, {"measurement": "Interpretation of SF-36 PCS, Content-Based: Climb stairs", "setting": "[1]; [3]", "value": 66.4, "unit": "%"}, {"measurement": "Interpretation of SF-36 PCS, Content-Based: Difficulty working", "setting": "[1]; [3]", "value": 88.1, "unit": "%"}, {"measurement": "Interpretation of SF-36 PCS, Content-Based: Have energy", "setting": "[1]; [3]", "value": 9.7, "unit": "%"}, {"measurement": "Interpretation of SF-36 PCS, Content-Based: Time off work", "setting": "[1]; [3]", "value": 64.8, "unit": "%"}, {"measurement": "Interpretation of SF-36 PCS, Content-Based: Walk on block", "setting": "[1]; [3]", "value": 44.4, "unit": "%"}, {"measurement": "Interpretation of SF-36 PCS, criteria-based: Hospitalized", "setting": "[1]; [3]", "value": 10.7, "unit": "%"}, {"measurement": "Interpretation of SF-36 PCS, criteria-based: Job loss", "setting": "[1]; [3]", "value": 30.3, "unit": "%"}, {"measurement": "Interpretation of SF-36 PCS, criteria-based: MD visit", "setting": "[1]; [3]", "value": 47.7, "unit": "%"}, {"measurement": "Interpretation of SF-36 PCS, criteria-based: Not work", "setting": "[1]; [3]", "value": 44.1, "unit": "%"}, {"measurement": "SF-36 Bodily Pain score", "setting": "[1]; Week 12", "value": 51.0}, {"measurement": "SF-36 General Health score", "setting": "[1]; Week 12", "value": 58.9}, {"measurement": "SF-36 MCS score", "setting": "[1]; Week 12", "value": 49.0}, {"measurement": "SF-36 Mental Health score", "setting": "[1]; Week 12", "value": 71.2}, {"measurement": "SF-36 PCS score", "setting": "[1]; Week 12", "value": 38.3}, {"measurement": "SF-36 Physical Functioning score", "setting": "[1]; Week 12", "value": 51.1}, {"measurement": "SF-36 Role-Emotional score", "setting": "[1]; Week 12", "value": 60.5}, {"measurement": "SF-36 Role-Physical score", "setting": "[1]; Week 12", "value": 40.4}, {"measurement": "SF-36 Social Functioning score", "setting": "[1]; Week 12", "value": 72.0}, {"measurement": "SF-36 Vitality score", "setting": "[1]; Week 12", "value": 51.6}, {"measurement": "SF-36 Bodily Pain score", "setting": "[1]; Week 104", "value": 57.0}, {"measurement": "SF-36 General Health score", "setting": "[1]; Week 104", "value": 68.3}, {"measurement": "SF-36 MCS score", "setting": "[1]; Week 104", "value": 49.9}, {"measurement": "SF-36 Mental Health score", "setting": "[1]; Week 104", "value": 72.9}, {"measurement": "SF-36 PCS score", "setting": "[1]; Week 104", "value": 41.2}, {"measurement": "SF-36 Physical Functioning score", "setting": "[1]; Week 104", "value": 58.9}, {"measurement": "SF-36 Role-Emotional score", "setting": "[1]; Week 104", "value": 64.5}, {"measurement": "SF-36 Role-Physical score", "setting": "[1]; Week 104", "value": 48.6}, {"measurement": "SF-36 Social Functioning score", "setting": "[1]; Week 104", "value": 75.5}, {"measurement": "SF-36 Vitality score", "setting": "[1]; Week 104", "value": 56.9}, {"measurement": "Interpretation of SF-36 PCS, Content-Based: Climb stairs", "setting": "[1]; [4]", "value": 30.7, "unit": "%"}, {"measurement": "Interpretation of SF-36 PCS, Content-Based: Difficulty working", "setting": "[1]; [4]", "value": 51.2, "unit": "%"}, {"measurement": "Interpretation of SF-36 PCS, Content-Based: Have energy", "setting": "[1]; [4]", "value": 26.6, "unit": "%"}, {"measurement": "Interpretation of SF-36 PCS, Content-Based: Time off work", "setting": "[1]; [4]", "value": 29.8, "unit": "%"}, {"measurement": "Interpretation of SF-36 PCS, Content-Based: Walk on block", "setting": "[1]; [4]", "value": 21.4, "unit": "%"}, {"measurement": "Interpretation of SF-36 PCS, content-based: Climb stairs", "setting": "[1]; [4]", "value": 30.7, "unit": "%"}, {"measurement": "Interpretation of SF-36 PCS, content-based: Difficulty working", "setting": "[1]; [4]", "value": 61.2, "unit": "%"}, {"measurement": "Interpretation of SF-36 PCS, content-based: Have energy", "setting": "[1]; [4]", "value": 26.6, "unit": "%"}, {"measurement": "Interpretation of SF-36 PCS, content-based: Time off work", "setting": "[1]; [4]", "value": 29.8, "unit": "%"}, {"measurement": "Interpretation of SF-36 PCS, content-based: Walk on block", "setting": "[1]; [4]", "value": 21.4, "unit": "%"}, {"measurement": "Interpretation of SF-36 PCS, criteria-based: Hospitalized", "setting": "[1]; [4]", "value": 7.7, "unit": "%"}, {"measurement": "Interpretation of SF-36 PCS, criteria-based: Job loss", "setting": "[1]; [4]", "value": 20.8, "unit": "%"}, {"measurement": "Interpretation of SF-36 PCS, criteria-based: MD visit", "setting": "[1]; [4]", "value": 34.6, "unit": "%"}, {"measurement": "Interpretation of SF-36 PCS, criteria-based: Not work", "setting": "[1]; [4]", "value": 24.2, "unit": "%"}, {"measurement": "mean SF-36 PCS score", "setting": "[1]; week 12 (baseline 31.7 combination, 32.2 MTX)", "value": 38.3}]}
{"compound": "adalimumab: human anti-TNF mAb (HUMIRA, Abbott Laboratories), described in U.S. Pat. No. 6,090,382 as D2E7", "values": [{"measurement": "All infectious AE", "setting": "[2]", "value": 110, "unit": "Events/100-PY"}, {"measurement": "Demyelination", "setting": "[2]", "value": 0.0, "unit": "Events/100-PY"}, {"measurement": "Lymphoma", "setting": "[2]", "value": 0.0, "unit": "Events/100-PY"}, {"measurement": "Malignancies", "setting": "[2]", "value": 0.9, "unit": "Events/100-PY"}, {"measurement": "Pancytopenia", "setting": "[2]", "value": 0.0, "unit": "Events/100-PY"}, {"measurement": "Serious AE", "setting": "[2]", "value": 21.1, "unit": "Events/100-PY"}, {"measurement": "Serious Infectious AE", "setting": "[2]", "value": 0.7, "unit": "Events/100-PY"}]}
